Laboratory results published in patent US20250171438A1 (Agios Pharmaceuticals, Inc., priority 2022, published 2025).

These molecules were tested against T1, human PAH with the R408W mutation (Homo sapiens, UniProt P00439, R408W) (assay: Cell Based Phenylalanine Flux Assay). Details: A375 cells expressing human R408W PAH; 24 hrs compound incubation; 13C-Tyrosine by LC-MS; average where tested multiple times; read-out: AC50.
T1 construct: expressed in transfected cells
T1 sequence (P00439 1-452 R408W): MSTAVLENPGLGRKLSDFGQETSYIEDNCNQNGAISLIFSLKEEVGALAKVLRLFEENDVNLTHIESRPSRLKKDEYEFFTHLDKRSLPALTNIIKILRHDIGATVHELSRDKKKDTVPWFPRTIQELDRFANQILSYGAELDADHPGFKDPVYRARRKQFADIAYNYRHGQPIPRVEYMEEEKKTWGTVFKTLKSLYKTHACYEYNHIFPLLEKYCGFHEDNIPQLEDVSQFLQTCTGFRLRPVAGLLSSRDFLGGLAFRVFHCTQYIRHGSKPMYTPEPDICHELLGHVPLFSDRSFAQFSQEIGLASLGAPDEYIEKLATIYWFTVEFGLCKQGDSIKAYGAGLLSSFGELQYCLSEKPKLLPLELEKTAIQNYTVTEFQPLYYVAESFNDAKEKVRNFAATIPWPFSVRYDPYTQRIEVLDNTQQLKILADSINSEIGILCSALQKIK
Protocol: Compounds were resuspended in DMSO, and 2-fold serial dilutions were performed to generate a 10-point dose curve. Compounds were added to plated cells in a total volume of 100 pal, and a final DMSO concentration of 0.5%. Each compound was tested in duplicate. Following compound addition, cells were placed in a 5% CO2, 37° C. tissue culture incubator for 24 hrs. After the incubation period, 20 μM sepiapterin and 800 μM 13C9,15N-Phenylalanine were added. After 4 hours, cell media was removed. An aliquot of 10 μl of cell media was combined with 200 μl of extraction buffer (80% acetonitrile/20% H2O) for each well. Determination of ^13C-Tyrosine concentration was assessed by liquid chromatography mass spectrometry.
Where a compound was tested multiple times, the average value of the tests is reported.

| SMILES | AC50 [µM] |
| --- | --- |
| O=C(c1ocnc1C(F)(F)F)N1CCCc2[nH]cnc2[C@@H]1c1nc2ccccc2s1 [Example 2132, (R)-(4-(benzo[d]thiazol-2-yl)-7,8-dihydroimidazo[4,5-c]azepin-5(1H,4H,6H)-yl)(4-(trifluoromethyl)oxazol-5-yl)methanone] | 1 to 5 |
| O=C(c1oc(N2CCOCC2)nc1C(F)(F)F)N1CCCc2[nH]cnc2[C@H]1c1nc2ccccc2s1 [Example 2133, (S)-(4-(benzo[d]thiazol-2-yl)-7,8-dihydroimidazo[4,5-c]azepin-5(1H,4H,6H)-yl)(2-morpholino-4-(trifluoromethyl)oxazol-5-yl)methanone] | 1 to 5 |
| O=C(c1oc(N2CCOCC2)nc1C(F)(F)F)N1CCCc2[nH]cnc2[C@@H]1c1nc2ccccc2s1 [Example 2134, (R)-(4-(benzo[d]thiazol-2-yl)-7,8-dihydroimidazo[4,5-c]azepin-5(1H,4H,6H)-yl)(2-morpholino-4-(trifluoromethyl)oxazol-5-yl)methanone] | 1 to 5 |
| O=C(c1oc(CCC2CC2)nc1C(F)(F)F)N1CCCc2[nH]cnc2[C@H]1c1nc2ccccc2s1 [Example 2135, (S)-(4-(benzo[d]thiazol-2-yl)-7,8-dihydroimidazo[4,5-c]azepin-5(1H,4H,6H)-yl)(2-(2-cyclopropylethyl)-4-(trifluoromethyl)oxazol-5-yl)methanone] | < 0.5 |
| O=C(c1oc(CCC2CC2)nc1C(F)(F)F)N1CCCc2[nH]cnc2[C@@H]1c1nc2ccccc2s1 [Example 2136, (R)-(4-(benzo[d]thiazol-2-yl)-7,8-dihydroimidazo[4,5-c]azepin-5(1H,4H,6H)-yl)(2-(2-cyclopropylethyl)-4-(trifluoromethyl)oxazol-5-yl)methanone] | 0.5 to 1 |
| O=C(c1oc(C2(O)CCC2)nc1C(F)(F)F)N1CCCc2[nH]cnc2[C@H]1c1nc2ccccc2s1 [Example 2137, (S)-(4-(benzo[d]thiazol-2-yl)-7,8-dihydroimidazo[4,5-c]azepin-5(1H,4H,6H)-yl)(2-(1-hydroxycyclobutyl)-4-(trifluoromethyl)oxazol-5-yl)methanone] | 1 to 5 |
| O=C(c1oc(C2(O)CCC2)nc1C(F)(F)F)N1CCCc2[nH]cnc2[C@@H]1c1nc2ccccc2s1 [Example 2138, (R)-(4-(benzo[d]thiazol-2-yl)-7,8-dihydroimidazo[4,5-c]azepin-5(1H,4H,6H)-yl)(2-(1-hydroxycyclobutyl)-4-(trifluoromethyl)oxazol-5-yl)methanone] | 1 to 5 |
| O=C(CCc1nccs1)N1CCc2[nH]cnc2[C@H]1c1nccs1 [Example 2139, (S)-3-(thiazol-2-yl)-1-(4-(thiazol-2-yl)-6,7-dihydro-1H-imidazo[4,5-c]pyridin-5(4H)-yl)propan-1-one] | > 5 |
| O=C(CCc1nccs1)N1CCc2[nH]cnc2[C@H]1c1ncc(-c2ccccc2)s1 [Example 2141] | < 0.5 |
| O=C(CCc1nccs1)N1CCc2[nH]cnc2[C@@H]1c1ncc(-c2ccccc2)s1 [Example 2142, (R)-1-(4-(5-phenylthiazol-2-yl)-6,7-dihydro-1H-imidazo[4,5-c]pyridin-5(4H)-yl)-3-(thiazol-2-yl)propan-1-one] | > 5 |
| O=C(CCc1nccs1)N1CCc2[nH]cnc2[C@H]1c1nc(-c2ccccc2)cs1 [Example 2143] | 1 to 5 |
| O=C(CCc1nccs1)N1CCc2[nH]cnc2[C@@H]1c1nc(-c2ccccc2)cs1 [Example 2144, (R)-1-(4-(4-phenylthiazol-2-yl)-6,7-dihydro-1H-imidazo[4,5-c]pyridin-5(4H)-yl)-3-(thiazol-2-yl)propan-1-one] | > 5 |
| O=C(c1cncs1)N1CCc2[nH]cnc2[C@H]1c1ncc(-c2ccccc2)s1 [Example 2145] | < 0.5 |
| O=C(c1cncs1)N1CCc2[nH]cnc2[C@@H]1c1ncc(-c2ccccc2)s1 [Example 2146, (R)-(4-(5-phenylthiazol-2-yl)-6,7-dihydro-1H-imidazo[4,5-c]pyridin-5(4H)-yl)(thiazol-5-yl)methanone] | > 5 |
| O=C(CCc1nccs1)N1CCc2[nH]cnc2[C@H]1c1nc(C2CC2)cs1 [Example 2147] | > 5 |

Further lines, results first:

| AC50 [µM] | SMILES |
| --- | --- |
| 1 to 5 | O=C(CCc1nccs1)N1CCc2[nH]cnc2[C@H]1c1ncc(Br)s1 [Example 2148] |
| > 5 | O=C(CCc1nccs1)N1CCc2[nH]cnc2[C@@H]1c1ncc(Br)s1 [Example 2149, (R)-1-(4-(5-bromothiazol-2-yl)-6,7-dihydro-1H-imidazo[4,5-c]pyridin-5(4H)-yl)-3-(thiazol-2-yl)propan-1-one] |
| 1 to 5 | O=C(CCc1nccs1)N1CCc2[nH]cnc2[C@H]1c1nc(Br)cs1 [Example 2150] |
| 0.5 to 1 | Cc1ncoc1C(=O)N1CC2(CC2)c2[nH]cnc2[C@H]1c1nc2ccccc2s1 [Example 2152, (S)-(4′-(benzo[d]thiazol-2-yl)spiro[cyclopropane-1,7′-imidazo[4,5-c]pyridin]-5′(1′H,4′H,6′H)-yl)(4-methyloxazol-5-yl)methanone] |
| 1 to 5 | O=C(c1ccno1)N1CCc2[nH]cnc2[C@H]1c1nc2cc(F)ccc2s1 [Example 2153, (S)-(4-(5-fluorobenzo [d]thiazol-2-yl)-6,7-dihydro-1H-imidazo[4,5-c]pyridin-5(4H)-yl) (iso xazol-5-yl)methanone] |
| > 5 | O=C(c1ccno1)N1CCc2[nH]cnc2[C@@H]1c1nc2cc(F)ccc2s1 [Example 2154, (R)-(4-(5-fluorobenzo [d]thiazol-2-yl)-6,7-dihydro-1H-imidazo[4,5-c]pyridin-5(4H)-yl)(isoxazol-5-yl)methanone] |
| 1 to 5 | O=C(c1cnn2cc(CN3CCOCC3)ccc12)N1CCc2[nH]cnc2[C@H]1c1nc2ccccc2s1 [Example 2155] |
| > 5 | O=C(c1cnn2cc(CN3CCOCC3)ccc12)N1CCc2[nH]cnc2[C@@H]1c1nc2ccccc2s1 [Example 2156, (R)-(4-(benzo[d]thiazol-2-yl)-6,7-dihydro-1H-imidazo[4,5-c]pyridin-5(4H)-yl)(6-(morpholinomethyl)pyrazolo[1,5-a]pyridin-3-yl)methanone] |
| < 0.5 | [2H][C@@]1(c2nc3ccccc3s2)c2nc[nH]c2CCN1C(=O)c1cnc(-c2cnn(C)c2)s1 [Example 2157, [(4S)-4-(1,3-benzothiazol-2-yl)-4-deuterio-6,7-dihydro-1H-imidazo[4,5-c]pyridin-5-yl]-[2-(1-methylpyrazol-4-yl)thiazol-5-yl]methanone] |
| > 5 | [2H][C@]1(c2nc3ccccc3s2)c2nc[nH]c2CCN1C(=O)c1cnc(-c2cnn(C)c2)s1 [Example 2158, [(4R)-4-(1,3-benzothiazol-2-yl)-4-deuterio-6,7-dihydro-1H-imidazo[4,5-c]pyridin-5-yl]-[2-(1-methylpyrazol-4-yl)thiazol-5-yl]methanone] |
| < 0.5 | [2H][C@@]1(c2nc3ccccc3s2)c2nc[nH]c2CCN1C(=O)c1ocnc1C [Example 2159, [(4S)-4-(1,3-benzothiazol-2-yl)-4-deuterio-6,7-dihydro-1H-imidazo[4,5-c]pyridin-5-yl]-(4-methyloxazol-5-yl)methanone] |
| > 5 | [2H][C@]1(c2nc3ccccc3s2)c2nc[nH]c2CCN1C(=O)c1ocnc1C [Example 2160, [(4R)-4-(1,3-benzothiazol-2-yl)-4-deuterio-6,7-dihydro-1H-imidazo[4,5-c]pyridin-5-yl]-(4-methyloxazol-5-yl)methanone] |
| 0.5 to 1 | [2H]c1nc2c([nH]1)CCN(C(=O)c1cnco1)[C@@H]2c1nc2c(F)cccc2s1 [Example 2161, [(4S)-2-deuterio-4-(4-fluoro-1,3-benzothiazol-2-yl)-1,4,6,7-tetrahydroimidazo[4,5-c]pyridin-5-yl]-oxazol-5-yl-methanone] |
| 1 to 5 | O=C(c1cnco1)N1CCc2[nH]cnc2[C@@H]1c1nc2c(F)cccc2s1 [Example 2162] |
| < 0.5 | O=C(c1oc(C2CC2)nc1C(F)(F)F)N1CCc2[nH]cnc2[C@H]1c1nc2ccccc2s1 [Example 2163] |
| < 0.5 | O=C(c1oc(C2CC2)nc1C(F)(F)F)N1CCc2[nH]cnc2[C@@H]1c1nc2ccccc2s1 [Example 2164, (R)-(4-(benzo[d]thiazol-2-yl)-6,7-dihydro-1H-imidazo[4,5-c]pyridin-5(4H)-yl)(2-cyclopropyl-4-(trifluoromethyl)oxazol-5-yl)methanone] |
| < 0.5 | O=C(c1oc(N2CCOCC2)nc1C(F)(F)F)N1CCc2[nH]cnc2[C@H]1c1nc2ccccc2s1 [Example 2165] |
| < 0.5 | O=C(c1ocnc1C1CC1)N1CCCC2NC=NC2[C@H]1c1nc2ccccc2s1 (stereo partly drawn) [Example 2167, ((4S)-4-(benzo[d]thiazol-2-yl)-3a,4,6,7,8,8a-hexahydroimidazo[4,5-c]azepin-5(1H)-yl)(4-cyclopropyloxazol-5-yl)methanone] |
| 1 to 5 | CC(C)(O)c1cc(C(=O)N2CCc3[nH]cnc3[C@@H]2c2nc3c(F)cccc3s2)on1 [Example 2169, (R)-(4-(4-fluorobenzo[d]thiazol-2-yl)-6,7-dihydro-1H-imidazo[4,5-c]pyridin-5(4H)-yl)(3-(2-hydroxypropan-2-yl)isoxazol-5-yl)methanone] |
| 1 to 5 | CC(C)(O)c1cc(C(=O)N2CCc3[nH]cnc3[C@H]2c2nc3c(F)cccc3s2)on1 [Example 2170, (S)-(4-(4-fluorobenzo[d]thiazol-2-yl)-6,7-dihydro-1H-imidazo[4,5-c]pyridin-5(4H)-yl)(3-(2-hydroxypropan-2-yl)isoxazol-5-yl)methanone] |
| 1 to 5 | Cn1nc(C(F)F)nc1C(=O)N1CCc2[nH]cnc2[C@H]1c1nc2ccccc2s1 [Example 2171] |
